For one molecule, root formation results are on record in patent US7932086B2, “Commercially viable process for in vitro mass culture of Jatropha curcas” (Reliance Life Sciences Pvt. Ltd., priority 2007, dated 2011).

The test system of this test is Jatropha curcas elongated shoots. The test is described as follows: in vitro rooting of elongated shoots. The class given is cell-based. To be noted: 4.9 μM in half strength Murashige & Skoog Basal Medium.

SMILES strings stand for the structures.

Take `O=C(O)CCCc1c[nH]c2ccccc12` [IBA, Indole-3-butyric acid]: the root formation entry is listed as “well-formed roots”.
